Data: patent US20240277890A1, “ANTIMICROBIAL ARTICLES COMPRISING POLYURETHANE” (Amicoat AS, priority 2021, published 2024)
In brackets after ≈: the same amount, converted by molar mass.

Tests used:
[1] = tested on: Staphylococcus aureus FDA486; assay: Murine skin infection model, one day topical treatment; assay type: in vivo, mice; conditions: cream or gel containing 2% (w/w) of compound; three topical treatments at three hourly intervals; compared to placebo
Experimental: (§1) The skin of mice was infected with Staphylococcus aureus or Streptococcus pyogenes and subsequently given a total of three treatments at three hourly intervals. Three hours after the last treatment, skin biopsies were collected and the number of colony forming units (CFUs) present in the skin sample was determined. Results are shown in FIGS. 3, 4 and 5 expressed as the number of colony forming units per mouse.

[2] = tested on: Streptococcus pyogenes CS301; assay: as above; assay type: in vivo, mice
Experimental: as §1

[3] = tested on: Candida tropicalis ATCC750 - reference strain
[4] = tested on: Candida (Issatchenkia) krusei ATCC6258 - reference strain
[5] = tested on: Trichophyton mentagrophytes - G.R. Micro collection
[6] = tested on: Cryptococcus neoformans - G.R. Micro collection
[7] = tested on: Pseudomonas aeruginosa - multi-drug resistant clinical isolate
[8] = tested on: Moraxella catarrhalis - β-lactamase positive clinical isolate
[9] = tested on: Moraxella catarrhalis - reduced fluoroquinolone susceptibility clinical isolate
[10] = tested on: Staphylococcus aureus ATCC 29213 - antibiotic-susceptible control strain; conditions: ATCC 29213
[11] = tested on: Staphylococcus aureus ATCC 25923 - antibiotic-susceptible control strain
[12] = tested on: Staphylococcus aureus ATCC 43300 - methicillin-resistant control strain
[13] = tested on: Staphylococcus aureus - methicillin-resistant clinical isolate
[14] = tested on: Staphylococcus epidermidis antibiotic susceptible clinical isolate
[15] = tested on: Staphylococcus epidermidis methicillin-resistant clinical isolate
[16] = tested on: Staphylococcus haemolyticus - antibiotic susceptible clinical isolate
[17] = tested on: Staphylococcus saprophyticus - antibiotic susceptible clinical isolate
[18] = tested on: Enterococcus gallinarum vancomycin-resistant (VanC) clinical isolate
[19] = tested on: Corynebacterium jeikeium - antibiotic-susceptible clinical isolate
[20] = tested on: Corynebacterium jeikeium - multi-drug resistant clinical isolate
[21] = tested on: EMRSA3 Staphylococcus aureus (MRSA) - SSCmec type 1; conditions: EMRSA3 - SSCmec type 1
[22] = tested on: EMRSA15 Staphylococcus aureus (MRSA) - SSCmec type 4; conditions: EMRSA15 - SSCmec type 4
[23] = tested on: HT2001254 Staphylococcus aureus (MRSA) - PVL positive; conditions: HT2001254 S. aureus (MRSA) PVL positive
[24] = tested on: Streptococcus agalactiae - antibiotic-susceptible clinical isolate
[25] = tested on: Streptococcus bovis - macrolide-resistant clinical isolate
[26] = tested on: Staphylococcus aureus, strain ATCC 25923; conditions: ATCC 25923
[27] = tested on: Methicillin resistant Staphylococcus aureus (MRSA) strain ATCC 33591; conditions: ATCC 33591
[28] = tested on: Methicillin resistant Staphylococcus epidermidis (MRSE) strain ATCC 27626; conditions: ATCC 27626

CC(C)NC(=O)[C@H](CCCNC(=N)N)NC(=O)[C@H](Cc1c(C(C)(C)C)[nH]c2c(C(C)(C)C)cc(C(C)(C)C)cc12)NC(=O)[C@@H](N)CCCNC(=N)N [Compound 7] was tested, and the “number of CFUs in skin biopsy” value [1] was “the number of CFUs was reduced”, the “number of CFUs in skin biopsy” value ([2]; 1% or 2% gel, three topical treatments at three hourly intervals, compared to placebo gel and bactroban) was “more effective at reducing the number of CFUs from a Streptococcus pyogenes CS 301 infection than the placebo gel or the bactroban” and the “number of CFUs in skin biopsy, 2% gel versus 1% gel” value ([2]; gel containing 2% compared to gel containing 1%) was “more effective than the gel containing only 1% of compound 7”. For the same compound, the MIC [3] was 4 µg/mL (≈ 5.51 µM), the MIC [4] was 8 µg/mL (≈ 11 µM) and the MIC [5] was 8 µg/mL (≈ 11 µM). For the same compound, the MIC [6] was 8 µg/mL (≈ 11 µM), the MIC [7] was 8 µg/mL (≈ 11 µM) and the MIC [8] was 4 µg/mL (≈ 5.51 µM). For the same compound, the MIC [9] was 8 µg/mL (≈ 11 µM), the MIC [10] was 8 µg/mL (≈ 11 µM) and the MIC [11] was 8 µg/mL (≈ 11 µM). It also gave an MIC [12] of 8 µg/mL (≈ 11 µM), an MIC [13] of 8 µg/mL (≈ 11 µM) and an MIC [14] of 4 µg/mL (≈ 5.51 µM). For the same compound, the MIC [15] was 4 µg/mL (≈ 5.51 µM), the MIC [16] was 4 µg/mL (≈ 5.51 µM) and the MIC [17] was 2 µg/mL (≈ 2.75 µM). It also gave an MIC [18] of 8 µg/mL (≈ 11 µM), an MIC [19] of 8 µg/mL (≈ 11 µM) and an MIC [20] of 8 µg/mL (≈ 11 µM). It also gave an MIC [21] of 8 µg/mL (≈ 11 µM), an MIC [22] of 8 µg/mL (≈ 11 µM) and an MIC [23] of 8 µg/mL (≈ 11 µM). For the same compound, the MIC [24] was 8 µg/mL (≈ 11 µM), the MIC [25] was 8 µg/mL (≈ 11 µM) and the “S. aureus (MIC)” value [26] was <2 µg/mL. For the same compound, the “MRSA (MIC)” value [27] was <2 µg/mL, the “MRSE (MIC)” value [28] was <2 µg/mL and the “C. albicans (MIC)” value (C. albicans) was 25 µg/mL. The “S. pyogenes (MIC)” value (S. pyogenes) was <2 µg/mL, the “E. coli (MIC)” value (E. coli) was 7 µg/mL and the “P. aeruginosa (MIC)” value (P. aeruginosa) was 7 µg/mL.
